Key:
human NPY Y1 receptor = target: T1, human NPY Y1 receptor (Homo sapiens, UniProt P25929); assay: NPY binding inhibition test ([125I] peptide YY binding to membranes of NPY Y1 receptor expressing CHO-K1 cells); details: membrane of CHO-K1 cells expressing human NPY Y1 receptor, 25° C., 2 hours; read-out: IC50 against specific [125I] peptide YY binding
T1 construct: expressed in transfected cells; host or cells: CHO-K1 NFAT β-Lactamase (Aurora)
T1 sequence (P25929 1-384): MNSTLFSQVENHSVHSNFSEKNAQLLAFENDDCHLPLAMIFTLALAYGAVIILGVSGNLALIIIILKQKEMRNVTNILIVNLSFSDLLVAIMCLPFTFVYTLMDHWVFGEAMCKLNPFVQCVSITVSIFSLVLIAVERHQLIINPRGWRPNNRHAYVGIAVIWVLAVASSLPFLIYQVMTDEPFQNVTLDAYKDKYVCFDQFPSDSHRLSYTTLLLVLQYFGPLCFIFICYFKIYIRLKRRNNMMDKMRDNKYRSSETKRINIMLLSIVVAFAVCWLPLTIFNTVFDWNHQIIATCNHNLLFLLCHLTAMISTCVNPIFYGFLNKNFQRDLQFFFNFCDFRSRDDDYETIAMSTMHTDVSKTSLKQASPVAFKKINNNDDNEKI
Excerpt: A cDNA sequence encoding a human NPY Y1 receptor (Accession No. L07615) was cloned into expression vectors pEF1x (made by Invitrogen Inc.).

human P-glycoprotein = target: T2, human P-glycoprotein (Homo sapiens, UniProt P08183); assay: Assay on P-glycoprotein substrate specificity (transcellular transport, LLC-PK1 cells expressing human P-glycoprotein); type: in vitro ADME; details: for efflux ratio at 3 h, 1 μM: pH 7.4, 1 μM test compound, human P-gp expressing LLC-PK1 cells, read-out: BA/AB (ratio of permeability coefficients Papp B to A / A to B)
T2 construct: host or cells: porcine kidney-derived LLC-PK1 cells
T2 sequence (P08183 whole entry): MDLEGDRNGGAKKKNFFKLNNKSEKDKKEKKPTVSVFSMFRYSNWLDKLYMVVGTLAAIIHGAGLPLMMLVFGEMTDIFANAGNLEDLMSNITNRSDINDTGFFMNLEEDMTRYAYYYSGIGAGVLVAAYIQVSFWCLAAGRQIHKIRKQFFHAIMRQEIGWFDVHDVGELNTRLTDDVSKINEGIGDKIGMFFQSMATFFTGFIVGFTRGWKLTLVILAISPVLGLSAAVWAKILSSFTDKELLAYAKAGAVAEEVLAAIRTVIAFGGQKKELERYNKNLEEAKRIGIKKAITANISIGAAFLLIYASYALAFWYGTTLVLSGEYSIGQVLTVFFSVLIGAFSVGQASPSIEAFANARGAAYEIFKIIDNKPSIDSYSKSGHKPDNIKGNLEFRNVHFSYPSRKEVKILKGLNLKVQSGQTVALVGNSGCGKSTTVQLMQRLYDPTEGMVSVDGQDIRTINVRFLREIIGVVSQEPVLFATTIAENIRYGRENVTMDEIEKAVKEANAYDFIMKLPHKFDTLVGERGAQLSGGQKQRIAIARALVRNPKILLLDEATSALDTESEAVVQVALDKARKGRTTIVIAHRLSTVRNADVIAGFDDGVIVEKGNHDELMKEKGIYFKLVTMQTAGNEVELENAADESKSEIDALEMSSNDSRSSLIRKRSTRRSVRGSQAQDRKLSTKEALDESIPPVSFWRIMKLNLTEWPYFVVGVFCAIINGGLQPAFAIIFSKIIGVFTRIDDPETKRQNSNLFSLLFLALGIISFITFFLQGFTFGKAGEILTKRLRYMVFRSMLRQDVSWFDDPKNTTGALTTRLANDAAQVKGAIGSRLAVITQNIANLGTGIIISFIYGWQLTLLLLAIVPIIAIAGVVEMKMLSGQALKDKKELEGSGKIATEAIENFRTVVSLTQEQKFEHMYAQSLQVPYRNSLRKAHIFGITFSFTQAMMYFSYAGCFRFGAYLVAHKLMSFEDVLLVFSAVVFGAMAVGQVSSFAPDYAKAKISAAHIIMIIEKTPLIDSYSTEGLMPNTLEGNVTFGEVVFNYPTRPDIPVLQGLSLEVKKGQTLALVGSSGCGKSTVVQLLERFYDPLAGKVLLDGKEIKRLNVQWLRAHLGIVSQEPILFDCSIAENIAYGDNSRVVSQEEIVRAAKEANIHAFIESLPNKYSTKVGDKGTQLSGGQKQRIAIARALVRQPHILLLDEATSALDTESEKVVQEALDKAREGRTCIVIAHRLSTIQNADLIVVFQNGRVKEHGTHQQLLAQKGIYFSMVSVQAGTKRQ
Method: P-glycoprotein (P-gp) substrate specificities were assessed in a transcellular transport assay system using cells expressing human P-glycoprotein. The human P-glycoprotein expression cells employing porcine kidney-derived LLC-PK1 cells as host cells were obtained from Dr. Alfred Schinkel in the Netherlands Cancer Institute [see Journal of Clinical Investigation, vol. 96, p. […] The cells were seeded on a filter membrane of 24-well HTS multiwell insert system (manufactured by Beckton Dickinson) to have a concentration of 0.15 million cells/well. The cells were cultured for about 1 week to form a single layer film by the cells. The multiwell insert system is divided into two compartments (the apical membrane side compartment and the basolateral membrane side compartment). Prior to the transport experiment, cell culture media on both sides (apical and basolateral sides) were replaced by Hank's balanced salt solution (HBSS) containing an assay buffer solution (10 mM Hepes (pH 7.4)). After about 1 hour, the basolateral and apical solutions were replaced by an assay buffer solution (0.5 mL) and a 1 μM test compound-containing assay buffer solution (0.5 mL), respectively, and the transport experiment was started for transportation from Apical to Basolateral (from A to B). After 3 hours, each 50 μL was collected as a measuring sample from both of the apical and basolateral sides. The reverse operation thereof was carried out for transportation from Basolateral to Apical (from B to A). […] After termination of the transport experiment, an equal amount of acetonitrile containing the internal standard was added to each measuring sample. The measuring samples were measured using LC-MS/MS to calculate the concentrations of the test compounds by a relative calibration curve method. The permeability coefficients of the test compounds transported in each of from A to B and from B to A were calculated (Papp: Expression 1). The ratios of the permeability coefficients between A to B and B to A were also determined (BA/AB: Expression 2). BA/AB was considered to be an index of P-glycoprotein (p-gp) substrate specificity [see Drug Metabolism and Disposition, vol. 31, p.
Papp=(0.5 mL×CR)/((CD+CR)×3 hr×Area) Expression 1
BA/AB=Papp(B to A)/Paap(A to B) Expression 2
Area: surface area of filter; CD: concentration of test compound in donor side after 3 hours; CR: concentration of test compound in receiver side after 3 hours

| Compound | IC50 (human NPY Y1 receptor) [nM] | efflux ratio at 3 h, 1 μM (human P-glycoprotein) | human P-glycoprotein substrate specificity (in words) (human P-glycoprotein) |
| --- | --- | --- | --- |
| Cc1cccc(CNc2cc(N3CCOCC3)cc(CSc3nc(CF)c(C)s3)n2)n1 [Example 9, 6-({[4-(fluoromethyl)-5-methyl-1,3-thiazol-2-yl]sulfanyl}methyl)-N-[(6-methylpyridin-2-yl)methyl]-4-(morpholin-4-yl)pyridin-2-amine] | 0.2 | 1.8 | notably low human P-glycoprotein substrate specificity |
| C=CCNc1cc(N2[C@@H]3CC[C@H]2C[C@H](F)C3)cc(CSc2nc(C)c(CC)s2)n1 [Example 4, 6-{[(5-ethyl-4-methyl-1,3-thiazol-2-yl)sulfanyl]methyl}-4-[(3-exo)-3-fluoro-8-azabicyclo[3,2,1]octo-8-yl]-N-(prop-2-en-1-yl)pyridin-2-amine] | 0.27 |  |  |
| CCc1sc(SCc2cc(N3CCOCC3)cc(NCc3cccc(C)n3)n2)nc1CF [Example 10, 6-({[5-ethyl-4-(fluoromethyl)-1,3-thiazol-2-yl]sulfanyl}methyl)-N-[(6-methylpyridin-2-yl)methyl]-4-(morpholin-4-yl)pyridin-2-amine] | 0.13 |  |  |
| Cc1cccc(CNc2cc(N3C4CCC3CC(F)(F)C4)cc(CSc3cc(C)n(C)n3)n2)n1 [Example 5, 4-(3,3-difluoro-8-azabicyclo[3,2,1]octo-8-yl)-6-{[(1,5-dimethyl-1H-pyrazol-3-yl)sulfanyl]methyl}-N-[(6-methylpyridin-2-yl)methyl]pyridin-2-amine] | 0.24 |  |  |
| C=CCNc1cc(N2CCC(F)(F)CC2)cc(CSc2cc(CC)n(C)n2)n1 [Example 6, 4-(4,4-difluoropiperidin-1-yl)-6-{[(5-ethyl-1-methyl-1H-pyrazol-3-yl)sulfanyl]methyl}-N-(prop-2-en-1-yl)pyridin-2-amine] | 0.28 |  |  |

Further lines, with some results ahead:

| IC50 (human NPY Y1 receptor) [nM] | efflux ratio at 3 h, 1 μM (human P-glycoprotein) | Compound | human P-glycoprotein substrate specificity (in words) (human P-glycoprotein) |
| --- | --- | --- | --- |
| 0.17 |  | Cc1cccc(CNc2cc(N3CCSCC3)cc(CSc3nc(C)c(C)s3)n2)n1 [Example 2, 6-{[(4,5-dimethyl-1,3-thiazol-2-yl)sulfanyl]methyl}-N-[(6-methylpyridin-2-yl)methyl]-4-(thiomorpholin-4-yl)pyridin-2-amine] |  |
| 0.26 |  | CCc1sc(SCc2cc(N3CCC(F)CC3)cc(NCc3cccc(C)n3)n2)nc1C [Example 3, 6-{[(5-ethyl-4-methyl-1,3-thiazol-2-yl)sulfanyl]methyl}-4-(4-fluoropiperidin-1-yl)-N-[(6-methylpyridin-2-yl)methyl]pyridin-2-amine] |  |
| 0.19 |  | Cc1cccc(CNc2cc(N3CCOCC3)cc(CSc3nc(CF)c(C4CC4)s3)n2)n1 [Example 11, 6-({[5-cyclopropyl-4-(fluoromethyl)-1,3-thiazol-2-yl]sulfanyl}methyl)-N-[(6-methylpyridin-2-yl)methyl]-4-(morpholin-4-yl)pyridin-2-amine] |  |
| 0.33 | 5 | C=CCOC(=O)Nc1cccc(CNc2cc(C3CCOCC3)cc(CSc3nnc(CC)s3)n2)c1 [Compound (A), reference compound] |  |
| 0.27 | 1.9 | Cc1nc(SCc2cc(N3CCSCC3)cc(NCc3cccc(F)n3)n2)oc1C [Example 1, 6-{[(4,5-dimethyl-1,3-oxazol-2-yl)sulfanyl]methyl}-N-[(6-fluoropyridin-2-yl)methyl]-4-(thiomorpholin-4-yl)pyridin-2-amine] | notably low human P-glycoprotein substrate specificity |
| 0.27 |  | CCCCNc1cc(N2CCC(F)(F)CC2)cc(CSc2nn(C)c(CC)c2C)n1 [Example 7, N-butyl-4-(4,4-difluoropiperidin-1-yl)-6-{[(5-ethyl-1,4-dimethyl-1H-pyrazol-3-yl)sulfanyl]methyl}pyridin-2-amine] |  |
| 0.27 |  | CCc1c(C)c(SCc2cc(N3CCC(F)(F)CC3)cc(NCCOC)n2)nn1C [Example 8, 4-(4,4-difluoropiperidin-1-yl)-6-{[(5-ethyl-1,4-dimethyl-1H-pyrazol-3-yl)sulfanyl]methyl}-N-(2-methoxyethyl)pyridin-2-amine] |  |
